Source: PMC10618744 (Cancer Discovery, 2023)
pIC50: −log10 of the molar value.

Biological target: PRMT5 (protein arginine methyltransferase 5) (Homo sapiens, UniProt O14744)
Type: biochemical

Sequence of PRMT5 (protein arginine methyltransferase 5) (O14744 2-637): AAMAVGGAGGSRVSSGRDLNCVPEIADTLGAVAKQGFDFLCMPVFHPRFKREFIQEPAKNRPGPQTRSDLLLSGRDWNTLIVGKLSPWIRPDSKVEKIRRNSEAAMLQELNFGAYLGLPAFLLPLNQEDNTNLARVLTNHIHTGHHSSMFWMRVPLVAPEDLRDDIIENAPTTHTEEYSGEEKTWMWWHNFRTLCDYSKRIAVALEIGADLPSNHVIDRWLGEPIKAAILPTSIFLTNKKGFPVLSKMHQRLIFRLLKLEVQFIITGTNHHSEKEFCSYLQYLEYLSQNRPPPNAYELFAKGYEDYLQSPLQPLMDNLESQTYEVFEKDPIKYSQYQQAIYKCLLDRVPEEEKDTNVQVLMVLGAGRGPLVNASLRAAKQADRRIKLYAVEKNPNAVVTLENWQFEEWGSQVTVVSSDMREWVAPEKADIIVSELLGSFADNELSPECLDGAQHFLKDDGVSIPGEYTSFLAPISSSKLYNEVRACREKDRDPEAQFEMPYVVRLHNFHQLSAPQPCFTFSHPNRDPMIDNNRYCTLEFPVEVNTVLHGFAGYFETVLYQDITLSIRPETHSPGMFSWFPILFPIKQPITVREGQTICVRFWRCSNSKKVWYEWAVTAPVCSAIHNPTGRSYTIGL
Sequence of PRMT5 (protein arginine methyltransferase 5) (Q9BQA1 2-342 partner): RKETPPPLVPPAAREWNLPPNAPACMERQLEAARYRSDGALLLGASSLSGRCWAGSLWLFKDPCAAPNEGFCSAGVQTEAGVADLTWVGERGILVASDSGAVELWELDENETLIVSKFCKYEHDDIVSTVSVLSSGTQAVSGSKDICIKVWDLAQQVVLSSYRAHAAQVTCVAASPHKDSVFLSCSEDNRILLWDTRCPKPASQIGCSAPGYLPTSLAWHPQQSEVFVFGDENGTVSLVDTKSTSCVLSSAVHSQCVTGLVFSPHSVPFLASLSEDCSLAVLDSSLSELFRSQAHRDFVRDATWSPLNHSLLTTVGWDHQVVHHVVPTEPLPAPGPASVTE

pIC50: ~5.70
Structure (SMILES): CSC[C@H]1O[C@@H](n2cnc3c(N)ncnc32)[C@H](O)[C@@H]1O [MTA]
